From ChEMBL document CHEMBL5257132, “Discovery of a Novel Series of Potent SHP2 Allosteric Inhibitors” (ACS Med Chem Lett, 2023) come the findings set out here.

Molecules are shown by their SMILES. pIC50: −log10 of the molar value. Where only a bound is given, the exact number is not on record here.

A short description of data set [1]: Inhibition of ERK phosphorylation in human KYSE520 cells incubated for 2 hrs by TR-FRET assay. Type of data set: cell-based. The note with it: KYSE-520, 2 h.
For data set [2], the target named is Voltage-gated inwardly rectifying potassium channel KCNH2 (Homo sapiens, UniProt Q12809). The experiment in a line: Inhibition of human ERG by fluorescence polarization assay. Type of data set: toxicity. For orientation: In fluorescence polarisation assays a small probe gives low polarisation when free and higher when bound to something large.
In the next data set the test system is KYSE-520 cell line. The experiment in a line: Antiproliferative activity against human KYSE520 cells assessed as inhibition of cell proliferation incubated for 96 hrs by CellTiter-Glo reagent based assay. The data set is classed as functional. The note with it: KYSE-520, 96 h.
Data set [3] addresses T1, Tyrosine-protein phosphatase non-receptor type 11 (Homo sapiens, UniProt Q06124).
T1 sequence (Q06124 whole entry): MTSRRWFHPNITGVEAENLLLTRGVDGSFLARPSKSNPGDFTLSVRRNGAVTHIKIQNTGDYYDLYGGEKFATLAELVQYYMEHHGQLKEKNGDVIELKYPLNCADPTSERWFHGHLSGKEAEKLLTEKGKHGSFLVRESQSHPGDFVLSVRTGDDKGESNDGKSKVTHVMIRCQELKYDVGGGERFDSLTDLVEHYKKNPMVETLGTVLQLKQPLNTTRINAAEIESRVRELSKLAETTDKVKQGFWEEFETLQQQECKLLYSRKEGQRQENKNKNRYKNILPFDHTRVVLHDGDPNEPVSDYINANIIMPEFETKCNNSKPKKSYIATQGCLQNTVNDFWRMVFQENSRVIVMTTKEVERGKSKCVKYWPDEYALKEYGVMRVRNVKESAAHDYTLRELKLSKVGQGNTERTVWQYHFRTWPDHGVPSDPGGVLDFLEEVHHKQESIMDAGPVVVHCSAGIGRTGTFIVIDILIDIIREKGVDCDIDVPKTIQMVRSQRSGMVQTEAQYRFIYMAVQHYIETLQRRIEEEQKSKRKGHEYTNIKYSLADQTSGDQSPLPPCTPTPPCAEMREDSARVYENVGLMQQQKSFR
The experiment in a line: Allosteric inhibition of recombinant human SHP2 using IRS1 peptide and DiFMUP as substrate incubated for 30 mins followed by DiFMUP addition and measured after 30 mins by fluorescence based microplate reader analysis.

A short description of data set [4]: Apparent permeability of compound at pH 7.4 at 5 uM incubated for 4 hrs by PAMPA based LC-MS/MS analysis. The data set is classed as ADME. A general note: PAMPA measures passive passage across an artificial lipid membrane.

Voltage-gated inwardly rectifying potassium channel KCNH2, sequence (Q12809 whole entry): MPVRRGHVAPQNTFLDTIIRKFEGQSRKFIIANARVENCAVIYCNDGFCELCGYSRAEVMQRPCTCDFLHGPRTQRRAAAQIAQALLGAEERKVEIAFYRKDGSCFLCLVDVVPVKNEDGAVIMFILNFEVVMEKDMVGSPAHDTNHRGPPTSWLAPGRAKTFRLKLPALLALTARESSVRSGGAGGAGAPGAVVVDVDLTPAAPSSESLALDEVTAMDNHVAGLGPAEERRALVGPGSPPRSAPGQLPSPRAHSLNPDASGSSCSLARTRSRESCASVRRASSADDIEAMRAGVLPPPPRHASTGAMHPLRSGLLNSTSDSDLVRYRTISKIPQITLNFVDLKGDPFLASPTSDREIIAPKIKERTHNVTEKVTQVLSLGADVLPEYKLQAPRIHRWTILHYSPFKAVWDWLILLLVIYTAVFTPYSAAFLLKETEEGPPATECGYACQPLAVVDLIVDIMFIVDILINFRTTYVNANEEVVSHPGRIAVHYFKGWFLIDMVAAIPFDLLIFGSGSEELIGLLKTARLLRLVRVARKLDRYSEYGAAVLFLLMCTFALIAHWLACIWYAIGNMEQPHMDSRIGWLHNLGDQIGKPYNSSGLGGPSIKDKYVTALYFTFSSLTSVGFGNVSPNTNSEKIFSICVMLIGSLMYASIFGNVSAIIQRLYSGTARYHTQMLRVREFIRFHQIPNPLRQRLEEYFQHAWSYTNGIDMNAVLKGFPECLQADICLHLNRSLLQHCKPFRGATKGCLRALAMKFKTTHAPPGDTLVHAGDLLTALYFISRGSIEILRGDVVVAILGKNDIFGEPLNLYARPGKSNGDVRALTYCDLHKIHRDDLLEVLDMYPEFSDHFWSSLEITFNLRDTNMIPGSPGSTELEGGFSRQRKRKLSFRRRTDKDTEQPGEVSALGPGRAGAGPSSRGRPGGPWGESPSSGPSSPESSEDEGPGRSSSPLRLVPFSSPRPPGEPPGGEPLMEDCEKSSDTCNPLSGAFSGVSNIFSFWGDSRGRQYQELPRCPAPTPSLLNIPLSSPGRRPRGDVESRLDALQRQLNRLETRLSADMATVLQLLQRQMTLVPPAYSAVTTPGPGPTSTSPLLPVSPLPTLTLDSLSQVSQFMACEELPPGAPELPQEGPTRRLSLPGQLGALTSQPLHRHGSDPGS

Consider `Cc1nc(N2CCC3(CC2)CO[C@@H](C)[C@H]3N)c(CO)nc1-c1cccc(Cl)c1Cl`, for which the pIC50 is 7.66 in data set [1], 5.48 in data set [2] and 5.34 in the data set with KYSE-520 cell line.

Turning to `N[C@]1(c2ccccc2)[C@@H]2CCN(c3cnc4c(-c5cccc(Cl)c5Cl)n[nH]c4n3)C[C@@H]21`, the pIC50 in data set [3] was 5.84.

Turning to `NC[C@]1(c2ccccc2)[C@@H]2CN(c3nc4nc(Sc5cccnc5C(F)(F)F)cnc4[nH]3)C[C@@H]21`, in data set [3], the pIC50 is below 5.10.

As for `Cc1csc([C@@]2(CN)[C@@H]3CCN(c4cnc5c(-c6ccc7nc(C)sc7c6Cl)n[nH]c5n4)C[C@@H]32)n1`, the results for the pIC50 in data set [3], in data set [1] and in data set [2] were 8.70, 8.40 and 7.62, respectively. Also, in data set [4], the Papp at 4 h, 5 µM amounted to 4.36 ×10⁻⁶ cm/s.

In the case of `Cn1cc2c(Cl)c(-c3n[nH]c4nc(N5C[C@@H]6[C@H](C5)[C@@]6(CN)c5cnsn5)cnc34)ccc2n1`, the pIC50 in data set [3] is 8.40; in data set [1], 7.52; in data set [2], below 4.52.

In the case of `Cc1csc([C@@]2(CN)[C@@H]3CCN(c4nc5nc(Sc6cccnc6C(F)(F)F)cnc5[nH]4)C[C@@H]32)n1`, the pIC50 is 8.05 in data set [3] and 6.68 in data set [1].

As to `NC[C@]1(c2ccccn2)[C@@H]2CCN(c3cnc4c(-c5cccc(Cl)c5Cl)n[nH]c4n3)C[C@@H]21`, the pIC50 is 8.30 in data set [3], 7.38 in data set [1] and 7.38 in data set [2].

Consider `Cc1csc([C@@]2(CN)[C@@H]3CCN(c4cnc(Sc5cccnc5C(F)(F)F)c(N)n4)C[C@@H]32)n1`, for which the values for the negative-log IC50 (pIC50) in data set [3] and in data set [1] were 7.19 and 8.05, respectively.

As for `Cc1nc([C@@]2(CN)[C@@H]3CN(c4cnc5c(-c6ccc7nn(C)cc7c6Cl)n[nH]c5n4)C[C@@H]32)cs1`, the pIC50 in data set [3] was 8.22; in data set [1], 7.05; in data set [2], below 4.52.

With `NC[C@]1(c2ccccn2)[C@@H]2CCN(c3nc4nc(Sc5cccnc5C(F)(F)F)cnc4[nH]3)C[C@@H]21`, the negative logarithm of the IC50 (pIC50) in data set [3] was 7.77; in data set [1], 6.32.

`Cc1cccc([C@@]2(CN)[C@@H]3CN(c4cnc5c(-c6ccc7nn(C)cc7c6Cl)n[nH]c5n4)C[C@@H]32)n1`: the pIC50 in data set [3] is 8.40; in data set [1] it was 7.05; in data set [2], 5.23.

Consider `Cn1cc2c(Cl)c(-c3n[nH]c4nc(N5C[C@@H]6[C@H](C5)[C@@]6(CN)c5nc(Cl)cs5)cnc34)ccc2n1`, for which the pIC50 in data set [3] is 8.30; in data set [1] it was 8.05; in data set [2], 4.91; in the data set with KYSE-520 cell line, 6.74.

For `Cn1cc2c(Cl)c(-c3n[nH]c4nc(N5C[C@@H]6[C@H](C5)[C@@]6(CN)c5ccccn5)cnc34)ccc2n1`, the pIC50 in data set [3] is 8.30; in data set [1], 7.40; in data set [2] it was 5.05.

Regarding `Cc1csc([C@@]2(CN)[C@@H]3CN(c4cnc5c(-c6ccc7nc(C)sc7c6Cl)n[nH]c5n4)C[C@@H]32)n1`, the figures for the pIC50 in data set [3], in data set [1] and in data set [2] were 8.30, 7.66 and 5.78, respectively.

`NC[C@]1(c2ccsc2)[C@@H]2CCN(c3cnc4c(-c5cccc(Cl)c5Cl)n[nH]c4n3)C[C@@H]21`: the pIC50 in data set [3] was 8.10; in data set [1], 7.00; in data set [2] it was 6.96.

With `NC[C@]1(c2ccccn2)[C@@H]2CCN(c3cnc(Sc4cccnc4C(F)(F)F)c(N)n3)C[C@@H]21`, the values for the pIC50 in data set [3] and in data set [1] were 7.17 and 7.70, respectively.

Consider `Cc1nnc([C@@]2(CN)[C@@H]3CN(c4cnc5c(-c6ccc7nn(C)cc7c6Cl)n[nH]c5n4)C[C@@H]32)s1`, for which the pIC50 was 8.00 in data set [3], 6.79 in data set [1] and below 4.52 in data set [2].

Take `NC[C@]1(c2ccsc2)[C@@H]2CCN(c3cnc4c(-c5cccnc5C(F)(F)F)n[nH]c4n3)C[C@@H]21`: the pIC50 in data set [3] is 7.47; in data set [1], below 6.18; in data set [2], 5.25.

Take `NC[C@]1(c2ccsc2)[C@@H]2CCN(c3nc4nc(Sc5cccnc5C(F)(F)F)cnc4[nH]3)C[C@@H]21`: the pIC50 is 7.27 in data set [3] and below 5.88 in data set [1].

Regarding `Cc1csc([C@@]2(CN)[C@@H]3CCN(c4cnc5c(-c6ccc7nn(C)cc7c6Cl)n[nH]c5n4)C[C@@H]32)n1`, the pIC50 is 8.22 in data set [3], 7.85 in data set [1] and 6.97 in data set [2].

For `Cn1ccc([C@@]2(CN)[C@@H]3CN(c4cnc5c(-c6ccc7nn(C)cc7c6Cl)n[nH]c5n4)C[C@@H]32)n1`, the figures for the pIC50 in data set [3], in data set [1] and in data set [2] were 8.15, 6.82 and below 4.52, respectively.

With `N[C@]1(c2ccccc2)[C@@H]2CN(c3nc4nc(Sc5cccnc5C(F)(F)F)cnc4[nH]3)C[C@@H]21`, in data set [3], the pIC50 is below 5.10.

On to `Cc1csc([C@]2(CN)[C@@H]3CCN(c4cnc5c(-c6cccc(Cl)c6Cl)n[nH]c5n4)C[C@@H]32)n1`, for which the pIC50 in data set [3] is 8.52; in data set [1] it was 7.55; in data set [2] it was 7.24. In addition, the apparent permeability coefficient (Papp) at 4 h, 5 µM in data set [4] came out at 1.75 ×10⁻⁶ cm/s.

Consider `Cc1csc([C@@]2(CN)[C@@H]3CCN(c4cnc5c(-c6ccn7nccc7c6Cl)n[nH]c5n4)C[C@@H]32)n1`, for which the negative-log IC50 (pIC50) in data set [3] is 8.52; in data set [1] it was 7.66; in data set [2], 7.92.

On to `NC[C@]1(c2ccccc2)[C@@H]2CCN(c3nc4nc(Sc5cccnc5C(F)(F)F)cnc4[nH]3)C[C@@H]21`, for which the pIC50 is 7.03 in data set [3] and below 5.88 in data set [1].

On to `Cn1cc2c(Cl)c(-c3n[nH]c4nc(N5C[C@@H]6[C@H](C5)[C@@]6(CN)c5ccccc5)cnc34)ccc2n1`, for which the negative-log IC50 (pIC50) in data set [3] is 8.05; in data set [1] it was 7.15; in data set [2], 5.27.

As to `Cn1cc2c(Cl)c(-c3n[nH]c4nc(N5C[C@@H]6[C@H](C5)[C@@]6(CN)c5nc(C(F)(F)F)cs5)cnc34)ccc2n1`, the pIC50 in data set [3] is 7.92; in data set [1], 7.68; in data set [2], below 4.52; in the data set with KYSE-520 cell line it was 6.64.

For the compound `Cc1csc([C@@]2(CN)[C@@H]3CCN(c4cnc5c(-c6cccnc6C(F)(F)F)n[nH]c5n4)C[C@@H]32)n1`, the results for the pIC50 in data set [3], in data set [1] and in data set [2] were 7.26, below 6.18 and 5.30, respectively.

Consider `Cc1ccn([C@@]2(CN)[C@@H]3CN(c4cnc5c(-c6ccc7nn(C)cc7c6Cl)n[nH]c5n4)C[C@@H]32)n1`, for which the negative-log IC50 (pIC50) in data set [3] is 7.31; in data set [1], 6.35; in data set [2] it was below 4.52.

Turning to `Cc1csc([C@]2(CN)[C@@H]3CN(c4cnc5c(-c6cccc(Cl)c6Cl)n[nH]c5n4)CC[C@@H]32)n1`, the figures for the pIC50 in data set [3] and in data set [2] were 6.43 and 6.11, respectively.

With `N[C@]1(c2ccccc2)[C@@H]2CCN(c3nc4nc(Sc5cccnc5C(F)(F)F)cnc4[nH]3)C[C@@H]21`, the pIC50 in data set [3] is 5.85.

Consider `Cn1cc2c(Cl)c(-c3n[nH]c4nc(N5C[C@@H]6[C@H](C5)[C@@]6(CN)c5nccs5)cnc34)ccc2n1`, for which the pIC50 is 8.40 in data set [3], 7.22 in data set [1] and 4.87 in data set [2].

For `NC[C@]1(c2ccccc2)[C@@H]2CCN(c3cnc4c(-c5cccc(Cl)c5Cl)n[nH]c4n3)C[C@@H]21`, the figures for the pIC50 in data set [3], in data set [1] and in data set [2] were 8.05, 6.59 and 6.41, respectively.

In the case of `NC[C@]1(c2ccccc2)[C@@H]2CCN(c3cnc(Sc4cccnc4C(F)(F)F)c(N)n3)C[C@@H]21`, the pIC50 in data set [3] is 6.44.

On to `Cc1csc([C@@]2(CN)[C@@H]3CN(c4cnc5c(-c6ccn7nccc7c6Cl)n[nH]c5n4)C[C@@H]32)n1`, for which the pIC50 in data set [3] is 8.40; in data set [1], 7.19; in data set [2], 6.63.

In the case of `Cc1csc([C@@]2(CN)[C@@H]3CCN(c4cnc5c(-c6cccc(Cl)c6Cl)n[nH]c5n4)C[C@@H]32)n1` (racemic), the pIC50 in data set [3] is 8.22; in data set [1], 7.15; in data set [2], 6.60.

As a reminder, the pIC50 is −log10 of the IC50, conventionally taken in molar units. The Papp is a coefficient for how fast a substance crosses the barrier.
